Columns and labels:
panel of 442 kinases [1] = target: T1, panel of 442 kinases (Homo sapiens, UniProt P08581); type: binding; conditions: Compound Concentration 10 µM
T1 construct: purchased KINOMEscan
Excerpt: (§1) We assessed the selectivity of members of this scaffold using the KINOMEscan methodology across a near comprehensive panel of 442 kinases [[18,27]].

panel of 442 kinases [2] = target: T2, panel of 442 kinases (Homo sapiens, UniProt Q12852); type: binding; conditions: Compound Concentration 10 µM
T2 construct: purchased KINOMEscan
T2 sequence (Q12852 1-859): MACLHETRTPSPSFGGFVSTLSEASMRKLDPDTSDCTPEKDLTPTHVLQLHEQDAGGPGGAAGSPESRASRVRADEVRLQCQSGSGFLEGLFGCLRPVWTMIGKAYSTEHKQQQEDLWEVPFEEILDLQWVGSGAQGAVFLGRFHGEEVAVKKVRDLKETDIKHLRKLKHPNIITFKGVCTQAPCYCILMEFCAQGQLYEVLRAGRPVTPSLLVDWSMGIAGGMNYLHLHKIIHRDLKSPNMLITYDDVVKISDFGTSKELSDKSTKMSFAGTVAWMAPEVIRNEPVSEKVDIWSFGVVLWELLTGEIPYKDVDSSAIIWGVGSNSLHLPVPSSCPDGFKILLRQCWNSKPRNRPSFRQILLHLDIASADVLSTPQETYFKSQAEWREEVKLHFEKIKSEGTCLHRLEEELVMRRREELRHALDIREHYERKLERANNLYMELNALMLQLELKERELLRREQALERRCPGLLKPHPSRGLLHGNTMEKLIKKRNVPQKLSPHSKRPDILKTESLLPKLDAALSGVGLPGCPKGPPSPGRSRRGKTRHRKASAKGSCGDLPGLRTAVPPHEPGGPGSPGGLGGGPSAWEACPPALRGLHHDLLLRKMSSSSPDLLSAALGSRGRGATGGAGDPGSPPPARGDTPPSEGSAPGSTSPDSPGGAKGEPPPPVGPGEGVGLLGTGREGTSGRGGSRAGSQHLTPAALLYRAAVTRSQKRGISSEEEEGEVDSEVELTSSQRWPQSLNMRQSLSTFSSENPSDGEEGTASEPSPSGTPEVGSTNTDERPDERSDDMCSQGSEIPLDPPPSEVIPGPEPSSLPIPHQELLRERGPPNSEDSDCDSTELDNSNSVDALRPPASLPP
Excerpt: as §1

T1 sequence (P08581 25-1390): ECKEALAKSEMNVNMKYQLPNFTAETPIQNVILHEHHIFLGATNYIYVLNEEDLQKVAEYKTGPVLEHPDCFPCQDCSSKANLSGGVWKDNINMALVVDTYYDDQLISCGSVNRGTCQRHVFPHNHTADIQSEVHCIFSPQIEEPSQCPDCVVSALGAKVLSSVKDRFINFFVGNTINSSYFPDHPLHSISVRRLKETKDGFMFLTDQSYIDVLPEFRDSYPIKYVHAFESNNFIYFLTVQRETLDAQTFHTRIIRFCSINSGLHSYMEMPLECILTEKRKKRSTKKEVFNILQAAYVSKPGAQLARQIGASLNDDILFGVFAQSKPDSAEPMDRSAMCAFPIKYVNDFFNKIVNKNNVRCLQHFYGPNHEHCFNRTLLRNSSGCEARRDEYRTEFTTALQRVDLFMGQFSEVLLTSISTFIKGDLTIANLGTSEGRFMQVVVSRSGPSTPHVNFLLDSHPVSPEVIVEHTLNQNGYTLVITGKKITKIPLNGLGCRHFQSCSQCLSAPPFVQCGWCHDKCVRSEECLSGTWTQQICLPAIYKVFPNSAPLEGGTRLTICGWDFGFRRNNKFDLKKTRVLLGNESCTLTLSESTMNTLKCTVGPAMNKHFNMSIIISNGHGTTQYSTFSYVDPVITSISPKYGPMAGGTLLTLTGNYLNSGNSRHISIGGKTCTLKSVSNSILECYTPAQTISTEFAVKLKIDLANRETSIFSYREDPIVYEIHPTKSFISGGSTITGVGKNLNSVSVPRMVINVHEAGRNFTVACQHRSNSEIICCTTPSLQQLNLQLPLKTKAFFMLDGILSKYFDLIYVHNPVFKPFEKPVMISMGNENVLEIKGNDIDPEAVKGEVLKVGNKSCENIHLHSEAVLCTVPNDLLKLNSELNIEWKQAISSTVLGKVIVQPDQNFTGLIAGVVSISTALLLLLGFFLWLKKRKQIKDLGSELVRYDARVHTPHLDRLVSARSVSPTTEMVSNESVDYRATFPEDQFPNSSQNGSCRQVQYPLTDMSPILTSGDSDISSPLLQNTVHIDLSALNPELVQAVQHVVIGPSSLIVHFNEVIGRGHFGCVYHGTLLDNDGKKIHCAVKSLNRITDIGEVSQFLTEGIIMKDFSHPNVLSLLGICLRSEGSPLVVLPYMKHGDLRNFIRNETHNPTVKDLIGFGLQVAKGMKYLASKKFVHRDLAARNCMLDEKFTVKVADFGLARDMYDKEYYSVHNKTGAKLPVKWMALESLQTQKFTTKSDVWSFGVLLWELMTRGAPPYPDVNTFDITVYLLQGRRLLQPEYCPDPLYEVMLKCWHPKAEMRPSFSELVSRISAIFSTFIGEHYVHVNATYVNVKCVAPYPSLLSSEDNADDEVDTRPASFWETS

SMILES	KINOMEscan: MET (panel of 442 kinases [1])	KINOMEscan: DLK (panel of 442 kinases [2])
COc1cc(C(=O)N2CCC(N3CCN(C)CC3)CC2)ccc1Nc1ncc2c(n1)N(C)c1ccccc1C(=O)N2C [15 (LRRK2-IN-1)]	100	81
CCOc1cc(C(=O)N2CCC(N3CCN(C)CC3)CC2)ccc1Nc1ncc2c(n1)N(C1CCCC1)c1ccccc1C(=O)N2C [Compound 26]	100	100
COc1cc(C(=O)N2CCC(N3CCN(C)CC3)CC2)ccc1Nc1ncc2c(n1)N1CCc3cccc(c31)C(=O)N2C [Compound 24]		78
COc1cc(C(=O)N2CCC(N3CCN(C)CC3)CC2)ccc1Nc1ncc2c(n1)N(C1CCCC1)c1ccccc1C(=O)N2C [Compound 25, 11-cyclopentyl-2-((2-methoxy-4-(4-(4-methylpiperazin-1-yl)piperidine-1-carbonyl)phenyl)amino)-5-methyl-5H-benzo[e]pyrimido[5,4-b][1,4]diazepin-6(11H)-one]	97	62

Source: paper PMC3914206
